Results from patent US9845292B2 (Max-Planck-Gesellschaft zur Förderung der Wissenschaften …, priority 2013, dated 2017).
Entries after “also recorded” stand apart in the source; their conditions may differ. Read-outs that look alike come from different tables or passages of the source. Each block holds one compound with its values, some of them ahead of it.

Key:
FKBP52 = molecular target: T1, FKBP52 (Homo sapiens, UniProt Q02790); assay: Fluorescence polarization binding assay, FK1-domain of FKBP52WT with tracer F2 (selectivity FKBP51 vs. FKBP52); settings: selectivity factor over FKBP52
T1 construct: Purified FK1-domains of FKBP51WT (4.5 nM) with F4 (3 nM), FKBP52WT (400 nM) with F2 (20 nM); implied by Ni-NTA purification) (N); made in house; host or cells: E. coli BL21(DE3)pLysS
T1 sequence (Q02790 50-138 limits assumed): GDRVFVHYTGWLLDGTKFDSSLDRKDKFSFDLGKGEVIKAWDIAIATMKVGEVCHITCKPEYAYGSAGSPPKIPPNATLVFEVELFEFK
In short: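 Compounds titrated against FK1 domain of FKBP52 WT with fluorescent tracer F2, in duplicate; competition curves fitted to four-parameter logistic for IC50. Ki derived from exact competitive-binding equation using tracer Kd; selectivity expressed as Ki(FKBP51)/Ki(FKBP52).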

FKBP51 [1] = molecular target: T2, FKBP51 (Homo sapiens, UniProt Q13451); assay: Fluorescence polarization binding assay, FK1-domain of FKBP51WT with tracer F4; set-up: Purified FK1-domains of FKBP51WT (4.5 nM) with F4 (3 nM), FKBP52WT (400 nM) with F2 (20 nM); implied by Ni-NTA purification) (N); made in house; host or cells: E. coli BL21(DE3)pLysS; settings: compounds B01-C25; read-out: Affinity(Ki) for FKBP51
T2 sequence (Q13451 42-130 limits assumed): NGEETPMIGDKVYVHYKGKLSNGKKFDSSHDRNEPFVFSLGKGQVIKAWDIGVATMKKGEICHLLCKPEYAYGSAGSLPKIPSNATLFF
Description: The target protein was also diluted in this assay buffer at double the highest concentration required for the final sample. This protein stock was used for a 1:1 serial dilution.
The inventive compound was dissolved in DMSO to reach a 100-times concentrated stock solution. This was used for a 1:1 serial dilution in DMSO.
For FKBP12, −51, and −52 the binding assays were performed in duplicates in the plate format.
The competition curves were analyzed by using SigmaPlot9. Data were fitted to a four parameter logistic curve to deduce the IC50 values. […]
Inhibition constants were measured in a fluorescence polarization binding assay by titrating the compounds.

N2a neuroblastoma cells = assay: N2a cellular assay (neurite outgrowth); format: cell-based; settings: for effect of high concentrations on neuronal differentiation: FIG. 1A, 1D; for enhancement of neurite outgrowth of N2a cells: compared to unselective FKBP ligand FK506, FIG. 1
Description: At day one N2a cells were plated into 24-well plates with cover slips (pretreated with polylysine) at a density of 35,000 cells/well and cultured with DMEM (incl. FCS 10% and Pen/Strep 1%) for 24 h. Next, cells were transfected with 80 ng expression plasmids encoding Venus as well as 720 ng pRK5 (mock transfection) in a total volume of 500 μl starvation media containing different concentrations of compounds or DMSO for 36 h (media without FCS; induction of neurite outgrowth). Therefore media was removed and replaced by 400 μl DMEM (empty). Next an equivalent volume of plasmids were given to 50 μl OPTIMEM and incubated for 5 min at RT. Additionally 1.5 μl Lipofectamine 2000 was separately dissolved in 50 μl OPTIMEM. After 5 min both solutions (plasmids and Lipofactamine 2000 containing media) were combined and incubated again for another 20 min. After that 100 μl of this mixture was given to 400 μl media per well. (See also protocol of the provider—Life Technologies).
On the next day cells were washed with PBS and incubated for 30 min with 300 μl PFA (4%) and sucrose (5%) to fix cells. After fixation cells were washed three times, mounted onto microscope slides using 4 μl Vectashield (mounting media) and analyzed by fluorescence microscopy. Each bar represents the mean of the neurite length of 30-50 cells after the indicated treatment (FIGS. 1-2).

FKBP51 [2] = molecular target: T2, FKBP51; assay: Fluorescence polarization binding assay, FK1-domain of FKBP51WT with tracer F4; set-up: Purified FK1-domains of FKBP51WT (4.5 nM) with F4 (3 nM), FKBP52WT (400 nM) with F2 (20 nM); made in house; host or cells: E. coli BL21(DE3)pLysS
In short: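 Competitive fluorescence polarization with tracer F4 and FKBP51 FK1 domain (wild type), compounds titrated by serial dilution from DMSO stock, run in duplicate. IC50 from four-parameter logistic fit; inhibition constants from an exact competitive-binding equation using tracer and inhibitor Kd values.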

C57Bl/6N mice = assay: Forced swim test (FST); format: in vivo; settings: FIG. 2D
Description: For the forced swim test (FST), male C57Bl/6N mice at the age of 12 weeks were single housed and acclimated to the room for 2 weeks before the experiment. […] The next morning, mice were subjected to a FST to assess stress-coping behavior. Each mouse was put into a 2 l glass beaker for 6 min and analyzed using an automated video-tracking system (Anymaze 4.20, Stoelting, Ill., USA). Time spent immobile (floating) and time spent struggling was scored by an experienced observer, blind to treatment or condition of the animals.

C57BL/6 mice = assay: Combined Dex/CRH test (neuroendocrine analysis, plasma CORT); format: in vivo; settings: 20 mg/kg i.p.; FIG. 2E
Description: Briefly, a reference blood sample was collected by an incision in the ventral tail vessel at 1500, three days prior to the actual test (‘untreated’ value). […] The injected volume was 0.3 ml for each injection. At 1500, a second blood sample was drawn from the tail vessel (‘after Dex’ value), immediately followed by an i.p. injection of CRH (0.15 mg/kg). Thirty minutes later, the mice were sacrificed and trunk blood was collected (‘after CRH’ value).

Ki(FKBP51)/Ki(FKBP52) (FKBP52; compounds B01-C25): +++ (>500 +++)
Ki (FKBP51 [1]): 1000 to 10000 nM
Structure (SMILES): COc1cc([C@@H](C(=O)N2CCCC[C@H]2C(=O)OCCCO)C2CCCCC2)cc(OC)c1OC [Compound C22]

Structure (SMILES): COc1ccc(CC[C@@H](OC(=O)[C@@H]2CCCCN2C(=O)[C@H](c2cc(OC)c(OC)c(OC)c2)C2CCCCC2)c2cccc(OCC(=O)O)c2)cc1OC [Compound A17, 2-(3-((R)-1-(((S)-1-((S)-2-Cyclohexyl-2-(3,4,5-trimethoxyphenyl)acetyl)piperidine-2-carbonyl)oxy)-3-(3,4-dimethoxyphenyl)propyl)phenoxy)acetic acid]
rescue of reduced neurite length triggered by Ru26988 (N2a neuroblastoma cells; 1 μM Ru26988, 10 nM A17, FIG. 2A, 2B): rescues reduced neurite length
protection of neurite outgrowth from the suppressing effect of high steroid concentrations (N2a neuroblastoma cells; 1 μM aldosterone or 1 μM RU26988, FIG. 2A-2C): able to protect the neutrite outgrowth of N2a from the suppressing effect of high steroid concentrations
effect of high concentrations on neuronal differentiation (N2a neuroblastoma cells): do not lead to reduction of the neuronal differentiation
rescue of reduction of neurite outgrowth triggered by aldosterone (N2a neuroblastoma cells; aldosterone 1 μM, FIG. 2B, 2C): reverts the reduction of neurite outgrowth
enhancement of neurite outgrowth of N2a cells (N2a neuroblastoma cells): stronger enhancement of neurite outgrowth; also recorded: promote neurite outgrowth in N2a cells more potently compared to FK506
Ki(FKBP51)/Ki(FKBP52) (FKBP52; FKBP52WT (400 nM) with F2 (20 nM), A series): ++++ (>5000 ++++)
Ki (FKBP51 [2]): < 100 nM

Structure (SMILES): COc1ccc(CC[C@@H](OC(=O)[C@@H]2CCCCN2C(=O)[C@H](c2cc(OC)c(OC)c(OC)c2)C2CCCCC2)c2cccc(OCCN3CCOCC3)c2)cc1OC [Compound A18]
floating time in forced swim test (C57Bl/6N mice; 20.0 mg/kg): reduced floating time
struggling time in forced swim test (C57Bl/6N mice; 20.0 mg/kg): enhanced struggling time
stress-coping behavior in the Forced Swim Test (C57Bl/6N mice; single injection 20.0 mg/kg, 16 hours prior to testing): elicited a more active stress-coping behavior
effect of high concentrations on neuronal differentiation (N2a neuroblastoma cells): do not lead to reduction of the neuronal differentiation
enhancement of neurite outgrowth of N2a cells (N2a neuroblastoma cells): stronger enhancement of neurite outgrowth; also recorded: promote neurite outgrowth in N2a cells more potently compared to FK506
regulation of stress hormone secretion (C57BL/6 mice): enhances the regulation of stress hormone secretion

Ki(FKBP51)/Ki(FKBP52) (FKBP52; compounds B01-C25): ++ (>50 ++)
Ki (FKBP51 [1]): 1000 to 10000 nM
Structure (SMILES): COc1cc([C@@H](C(=O)N2CCCC[C@H]2C(=O)OC(C)CO)C2CCCCC2)cc(OC)c1OC (some centres unmarked) [Compound C25]
